Values of other authors in US12138235B2, “Cape-loaded targeted microvesicular cancer drug and method for developing the same” (YEDITEPE UNIVERSITESI, priority 2017, dated 2024).

Key:
[1] = test system: MCF-7, MDA-MB-231 and TNBC breast cancer cell lines; settings: CAPE 40 μM
[2] = test system: TW2.6 oral squamous cell carcinoma cell line; settings: CAPE 100 μM
[3] = test system: SH-SY5Y neuroblastoma cell line; settings: CAPE 4-20 μM
breast cancer stem cells = settings: CAPE 40 μM
[4] = test system: SK-1 Hep1 liver cancer cell line; settings: combined treatment of CAPE 30 μg/ml and TRAIL
[5] = rats, prophylactic administration
[6] = test system: LNCaP, DU-145 and PC-3 prostate cancer cell lines
[7] = rats
[8] = test system: ME180 cervical cancer cell lines; settings: CAPE 50 μM

## O=C(/C=C/c1ccc(O)c(O)c1)OCCc1ccccc1 [CAPE, caffeic acid phenethyl ester]
[1]
  cell proliferation, cell cycle arrest, apoptosis, angiogenesis: dose-dependently stops cell proliferation, induces cell cycle arrest and apoptosis, and suppresses angiogenesis
[2]
  cell cycle phase populations and apoptosis: decreased G1 phase cell population, increased G2/M phase cell population and induced apoptosis
[3]
  effect in SH-SY5Y cells: no effect was observed
Breast cancer stem cells
  proliferation of breast cancer stem cells: inhibits proliferation of breast cancer stem cells
[4]
  caspase activation, cell death receptors, apoptosis: caspase activation increased, cell death receptors were activated via JNK and p38 signaling pathways and apoptosis was induced
[5]
  damage caused by doxorubicin in kidney, heart and brain tissues: prevented the damage
  liver damage depending on administration of cisplatin and tamoxifen: prevented the damage
[6]
  cell proliferation and Akt signaling pathway: dose-dependently inhibits cell proliferation
[7]
  radiation induced lung injury: decreased radiation induced lung injury
[8]
  proliferation, cell cycle arrest, apoptosis: prevents proliferation by inducing S and G2/M phase cell cycle arrests and induces apoptosis
